14 molecules from ChEMBL document CHEMBL1240320, “Antibacterial lysine analogs that target lysine riboswitches” (Nat Chem Biol, 2007) can be followed below.

Structures are written as SMILES. In brackets after ≈: the same amount, converted by molar mass. Activity calls are given as the source filed them. The rule behind the calls is not given here.

The target of assay [1] is Nucleic Acid. Nature of the assay: Binding affinity to Bacillus subtilis 168 1A1 lysine riboswitch 179 lysc by in-line probing assay. Format: nucleic-acid assay, Bacillus subtilis subsp. subtilis str. 168.
Assay [2] relates to Bacillus subtilis. Nature of the assay: Antibacterial activity against Bacillus subtilis 168 1A1 at 100 uM after 24 hrs by CLSI method. Format: functional, organism-based. The note with it: subsp. subtilis str. 168 1A1.
Assay [3] has as its system Bacillus subtilis. Nature of the assay: Antibacterial activity against Bacillus subtilis 1A40 at 1 mM after 3 hrs by CLSI method. In kind it is functional, organism-based.
For assay [4], the system named is Bacillus subtilis. Nature of the assay: Antibacterial activity against wild type Bacillus subtilis 168 1A1 assessed as inhibition of viable spore formation at 0.2 mM after 22 to 24 hrs. Format: functional, subsp. subtilis str. 168 1A1.
Assay [5] has as its system Bacillus subtilis. Nature of the assay: Antibacterial activity against Bacillus subtilis 168 M1 harboring G163A mutation in P4 motif after 24 hrs by CLSI method. Format: functional.
For assay [6], the system named is Bacillus subtilis. Nature of the assay: Antibacterial activity against Bacillus subtilis 168 M2 harboring adenosine deletion within 95 to 97 sequence in loop E of P2 motif after 24 hrs by CLSI method. Format: functional.
Assay [7] concerns the target Nucleic Acid. Nature of the assay: Binding affinity to Bacillus subtilis 168 1A1 lysine riboswitch 179 lysc. Format: nucleic-acid assay, Bacillus subtilis subsp. subtilis str. 168.
The target of assay [8] is Nucleic Acid. Nature of the assay: Binding affinity to lysine riboswitch 179 lysc of Bacillus subtilis 168 M1 harboring G163A mutation in P4 motif. In kind it is nucleic-acid assay, Bacillus subtilis subsp. subtilis str. 168.
For assay [9], the target named is Nucleic Acid. Nature of the assay: Binding affinity to lysine riboswitch 179 lysc of Bacillus subtilis 168 M2 harboring adenosine deletion within 95 to 97 sequence in loop E of P2 motif. Format: nucleic-acid assay, Bacillus subtilis subsp. subtilis str. 168.
The test system of assay [10] is Bacillus subtilis. Nature of the assay: Antibacterial activity against Bacillus subtilis 168 1A1 after 24 hrs by CLSI method. Format: functional.
The subject of assay [11] is Bacillus subtilis. Nature of the assay: Antibacterial activity against wild type Bacillus subtilis 168 1A1 assessed as inhibition of viable spore formation at 2 mM after 22 to 24 hrs. In kind it is functional, subsp. subtilis str. 168 1A1.
Assay [12] deals with Bacillus subtilis. Nature of the assay: Antibacterial activity against L-4-oxalysine-resistant Bacillus subtilis 168 M2 assessed as inhibition of viable spore formation at 2 mM after 22 to 24 hrs. In kind it is functional, subsp. subtilis str. 168 M2.
Where [13] appears, read: subsp. subtilis str. 168 M1, 24 h.
[14] abbreviates: subsp. subtilis str. 168 M2, 24 h.
Where [15] appears, read: subsp. subtilis str. 168 1A1, 24 h.

Regarding `NCCS(=O)(=O)C[C@H](N)C(=O)O`, the Kd was found to be 2.5 µM in assay [1], 13 µM in assay [7], 14 µM in assay [8] and 24 µM in assay [9]. For the same molecule, the outcome in [2] and in assay [3] was Active. Also, the Activity in [4] stood at 7%; in assay [11], 0%; in assay [12], 17%. The minimal inhibitory concentration (MIC) in assay [5] (setting [13]) was found to be 1560 µM (≈ 306 µg/mL); in assay [6] (setting [14]) it was 3.44 mM (≈ 675 µg/mL); in [10] (setting [15]), 0.026 mM (≈ 5.1 µg/mL).
`Nc1cc(C[C@H](N)C(=O)O)ccc1O` gave a Kd in assay [1] of more than 1000 µM. Besides, the MIC in [10] (setting [15]) is more than 5 mM. For the same molecule, the Activity in [11] is 75%.
As to `NCCCC[C@H](N)C(=O)O` [LYSINE], the Kd was found to be 0.36 µM in [1], 1.7 µM in assay [7], 3 µM in assay [8] and 2.9 µM in assay [9]. The result in assay [3] was inactive. Besides, the MIC result in assay [5] (subsp. subtilis str. 168 M1), in [6] (subsp. subtilis str. 168 M2) and in assay [10] (subsp. subtilis str. 168 1A1) was “inactive” in each case.
In assay [1], `Nc1ccccc1C(=O)C[C@H](N)C(=O)O` [L-KYNURENINE] showed a Kd of more than 1000 µM. In assay [10] (setting [15]), this molecule had an MIC of more than 5 mM.
As for `NCCSC[C@H](N)C(=O)O`, the result in assay [1] (subsp. subtilis str. 168 1A1) was Active.
On to `N=C(N)NCCCC[C@H](N)C(=O)O`, for which the affinity in [1], expressed as Kd, was 7 µM. The outcome in assay [3] was inactive. The molecule also returned a minimum inhibitory concentration (MIC) in assay [10] (setting [15]) of more than 5 mM.
Molecule `CC(=O)NCCCC[C@H](N)C(=O)O` came in with a Kd in assay [1] of more than 1000 µM. Further, in [10] (setting [15]), the MIC was more than 5 mM.
`CC(=N)NCCCC[C@H](N)C(=O)O` [L-NIL] registered a Kd in [1] of 11 µM. For the same molecule, the outcome in assay [2] was inactive. In assay [10] (setting [15]), this molecule gave an MIC of more than 5 mM.
For `NCC(=O)CCC(N)C(=O)O` (racemic), in [1], the Kd is more than 1000 µM. For the same molecule, in assay [10] (setting [15]), the MIC is more than 5 mM. Moreover, the Activity was 47% in assay [11] and 9% in assay [12].
In [1], `CN[C@@H](CCCCN)C(=O)O` gave a Kd of more than 1000 µM. The same molecule had a minimum inhibitory concentration (MIC) in assay [10] (setting [15]) of more than 5 mM.
The corresponding values for `C[N+](C)(C)CCCC[C@H](N)C(=O)O` [TRIMETHYLLYSINE] are more than 1000 µM and more than 5 mM.
With `NC/C=C/CC(N)C(=O)O` (racemic), the Kd in assay [1] amounted to 0.97 µM. Also, the outcome in assay [2] and in assay [3] was Active. Besides, the MIC in assay [5] (setting [13]) is more than 5000 µM; in assay [6] (setting [14]), more than 5 mM; in [10] (setting [15]), 0.938 mM (≈ 135 µg/mL).
As for `NCCOC[C@H](N)C(=O)O`, the equilibrium dissociation constant (Kd) was found to be 13 µM in assay [1], 26 µM in assay [7], 29 µM in [8] and 75 µM in assay [9]. The outcome in assay [2] and in assay [3] was Active. For the same molecule, the Activity turned out to be 71% in assay [4], 6% in [11] and 65% in [12]. Moreover, the minimal inhibitory concentration (MIC) was found to be 1560 µM (≈ 231 µg/mL) in assay [5] (setting [13]), 1.56 mM (≈ 231 µg/mL) in [6] (setting [14]) and 0.173 mM (≈ 25.6 µg/mL) in assay [10] (setting [15]).
Molecule `CC(=O)N[C@@H](CCCCN)C(=O)O` registered a Kd in assay [1] of more than 1000 µM. Also, the MIC in assay [10] (setting [15]) is more than 5 mM.
